Laboratory results published in paper PMC11429203, “Developing New Peptides and Peptide–Drug Conjugates for Targeting the FGFR2 Receptor-Expressing Tumor Cells and 3D Spheroids” (Biomimetics, 2024).
Where a SMILES comes first, the peptide text is derived from it. Where no end group is shown, it is not given here. The star is where a group is joined. Doxorubicin(3'-N) = COc1cccc2c1C(=O)c1c(O)c3c(c(O)c1C2=O)C[C@@](O)(C(=O)CO)C[C@@H]3O[C@H]1C[C@H](N*)[C@H](O)[C@H](C)O1

Tests used:
Format in all cases: cell-based, human
[1] = test system: co-cultured spheroids of KATO (III) cells and colon tumor-associated fibroblasts (CAFs); assay: Permeation into 3D co-cultured spheroids (fluorescence imaging); conditions: for Permeation of DOX conjugates and neat DOX into spheroids / Permeation of carboxyfluorescein-tagged peptides into spheroids: 1 µM, spheroids grown 6 days at 2000 cells/well, fluorescence imaging; for Permeation of DOX conjugates and neat DOX into spheroids: inherent DOX fluorescence; for Penetration depth from Image J plot profiles of fluorescence intensity, periphery to center: semi-quantitative mean normalized intensity, mean from 3 spheroids; for Permeation of carboxyfluorescein-tagged peptides into spheroids: 24 h incubation
Procedure: To mimic the tumor microenvironment, 3D cultures of tumor cells (spheroids) were grown. For growing spheroids, co-cultures of human colon-associated tumor fibroblasts and KATO III gastric cancer cells were grown in a 1:3 ratio in a growth media containing IMDM and fibroblast growth medium. Spheroids grown at 2000 cells/well and 4000 cells/well were co-cultured in Nunclon Sphera nonadherent 12-well plates and allowed to grow over a period of two weeks. The growth of the spheroids was monitored using optical microscopy. Media was cautiously removed every two days, and replaced with new medium.
The co-cultured spheroids were grown at a density of 2000 cells/well for six days prior to treatment with the peptides or the peptide–drug conjugates. To visualize the internalization of the peptides, those were first tagged with fluorescein to allow for visualization through fluorescence microscopy. For tagging, each peptide was tagged with NHS-Fluorescein (5/6-carboxyfluorescein succinimidyl ester to allow for binding with the amine group of the peptides). To each peptide solution (10 µM), 1 µM of the dye solution was added and allowed to shake in the dark for 24 h. The solutions were then centrifuged and washed with deionized water twice to remove any unbound dye. Then, peptide solutions were vortexed and allowed to incubate with the spheroids. For the drug conjugates, no tagging was done, due to inherent fluorescence of DOX. In general, 1 µM solutions of the peptides or drug conjugates were used. The spheroids were then visualized using fluorescent microscopy using an inverted Amscope IN480TC-20MB13 microscope at various magnifications.
To visualize the internalization of the peptides and the peptide–drug conjugates in the spheroids, we conducted fluorescence microscopy using an Amscope Inverted Phase-Contrast Fluorescence Microscope. Samples were imaged at various magnifications.
It is well known that constrained interstitial penetration may impede the diffusion of drugs into tumors, thus affecting efficacy. […] Their entry within the spheroids was examined through fluorescence imaging. In the case of the conjugates, because DOX is inherently fluorescent, fluorescence images were taken without tagging. […] The plot profiles obtained from the edge of the spheroid to the center were measured. On average, five measurements were carried out for images of each of the spheroids that were incubated with DOX-conjugated peptides, as well as with neat DOX. The fluoresence intensity from the periphery to the center of the spheroid was measured.

[2] = test system: KATO III gastric cancer cells; assay: WST-8 cytotoxicity assay, tumor cells; conditions: 24 h, WST-8, highest concentration (5 µM), triplicate
Procedure: Three cell lines were cultured in 50 mL sterile falcon tissue culture flasks. These included the FGFR2-expressing KATO III gastric cancer cell line (ATCC HTB-103), human colon cancer-associated tumor fibroblasts (HC-6231, Cell Biologics), and primary lung fibroblasts (normal) as control (ATCC-PCS-201-013). Both lines of fibroblasts were grown in Fibroblast Growth Media, and KATO III cells were cultured in Iscove’s Modified Dulbecco’s Medium (IMDM). All growth media were supplement with 10% fetal bovine serum (ATCC), 3 mL of 1X antibiotic-antimycotic mixture per 500 mL medium (GIBCO), 10 units/mL penicillin and 10 μg/mL streptomycin (GIBCO). Each cell line was incubated at 37 °C in a 5% CO2 incubator. Cells were grown to confluence, and the medium was changed every 2 to 3 days. Confluent cells were split twice a week.
Cells were plated in 96-well plates at a density of 1 × 10^4 cells/well. WST-8 assays (Cayman Chemicals, Ann Arbor, MI, USA) were conducted in triplicate for non-cancer primary fibroblasts, as well as for KATO III cells, following manufacturer instructions from the assay kit. […] Following incubation with WST-8 reagent according to manufacturer instructions, absorbance at 450 nm was measured using a Biotek microplate reader. The absorbance of DOX in media was subtracted.
To quantify the effects of the cytotoxicity of the peptides and the DOX conjugates, we conducted WST-8 assays. […]

[3] = test system: KATO (III) tumor cells; assay: Phase contrast imaging of cell morphology after treatment; conditions: 1 µM, 24 h, phase contrast microscopy
Procedure: Cells were plated in 96-well plates at a density of 1 × 10^4 cells/well. WST-8 assays (Cayman Chemicals, Ann Arbor, MI, USA) were conducted in triplicate for non-cancer primary fibroblasts, as well as for KATO III cells, following manufacturer instructions from the assay kit. In general, varying concentrations of the peptides and the DOX conjugates were utilized. The concentrations used were 0.1 µM, 0.5 µM, 1 µM, 2 µM and 5 µM. Neat DOX (1 µM, 2 µM) was also compared. The peptides or drug conjugates or DOX were allowed to incubate with cells for 24 h, and imaged using a phase contrast optical microscope before analysis. Following incubation with WST-8 reagent according to manufacturer instructions, absorbance at 450 nm was measured using a Biotek microplate reader. The absorbance of DOX in media was subtracted.
To investigate the impact of the peptides and the peptide–DOX conjugates on KATO (III) tumor cells, we conducted cytotoxicity studies.

| Compound | Permeation of DOX conjugates and neat DOX into spheroids [1] | Penetration depth from Image J plot profiles of fluorescence intensity, periphery to center [1] | Cell viability [2] [%] | Cell morphology after treatment [3] | Permeation of carboxyfluorescein-tagged peptides into spheroids [1] |
| --- | --- | --- | --- | --- | --- |
| COc1cccc2c1C(=O)c1c(O)c3c(c(O)c1C2=O)C[C@@](O)(C(=O)CO)C[C@@H]3O[C@H]1C[C@H](NC(=O)CNC(=O)[C@H](C)NC(=O)[C@H](CO)NC(=O)[C@H](CS)NC(=O)[C@H](C)N)[C@H](O)[C@H](C)O1 [A-pep-DOX] (H-ACSAG-{Doxorubicin(3'-N)}; N-terminus assumed) | higher fluorescence | penetrate deeper | 9 | appeared to bleb and burst | – |
| COc1cccc2c1C(=O)c1c(O)c3c(c(O)c1C2=O)C[C@@](O)(C(=O)CO)C[C@@H]3O[C@H]1C[C@H](N)[C@H](O)[C@H](C)O1 [DOX, Doxorubicin, reference compound] | marginal internalization | – | – | – | – |
| COc1cccc2c1C(=O)c1c(O)c3c(c(O)c1C2=O)C[C@@](O)(C(=O)CO)C[C@@H]3O[C@H]1C[C@H](NC(=O)CC[C@H](NC(=O)[C@@H]2CCCN2C(=O)[C@@H](NC(=O)[C@H](CC(C)C)NC(=O)[C@@H](NC(=O)[C@H](Cc2c[nH]cn2)NC(=O)[C@@H]2CCCN2C(=O)[C@@H](N)CC(C)C)C(C)C)[C@@H](C)O)C(=O)N[C@@H](C)C(=O)NCC(=O)N[C@@H](C)C(=O)N[C@H](C(=O)N[C@H]2C[C@H](O[C@H]3C[C@](O)(C(=O)CO)Cc4c(O)c5c(c(O)c43)C(=O)c3c(OC)cccc3C5=O)O[C@@H](C)[C@H]2O)[C@@H](C)O)[C@H](O)[C@H](C)O1 [L-pep-(DOX)2] | comparatively lower intensity of fluorescence | – | 7 | – | – |
| CC(C)C[C@H](NC(=O)[C@@H](NC(=O)[C@H](Cc1c[nH]cn1)NC(=O)[C@@H]1CCCN1C(=O)[C@@H](N)CC(C)C)C(C)C)C(=O)N[C@H](C(=O)N1CCC[C@H]1C(=O)N[C@@H](CCC(=O)O)C(=O)N[C@@H](C)C(=O)NCC(=O)N[C@@H](C)C(=O)N[C@H](C(=O)O)[C@@H](C)O)[C@@H](C)O [L-pep] | – | – | – | appeared spherical | relatively higher fluorescence was observed in the outlayers compared to the core |
| ACSAG [A-pep] | – | – | – | loss of morphology and adhesive properties | higher internalization |
| ACSAGLPHVLTPEAGATGASCA-(DOX)2 [Trimer-pep-(DOX)2] | relatively higher penetration | penetrate deeper | – | – | – |
